Data on one compound can be found in PMC5218480 (PLoS ONE, 2017).

SMILES strings stand for the structures.

The subject of the test is MV-4-11 cells. The test is described as follows: Gene expression microarray analysis (Affymetrix PrimeView) and GSEA. It is filed as cell-based, human. On the set-up: RFU PODN (11730768_x_at) / Fold change /veh PODN (11730768_x_at) / RFU LINC00158 (11744669_a_at) / Fold change /veh LINC00158 (11744669_a_at) / RFU DUSP10 (11751237_a_at) / Fold change /veh DUSP10 (11751237_a_at) / RFU ID3 (11757404_x_at) / Fold change /veh ID3 (11757404_x_at) / RFU PLEKHG5 (11737974_s_at) / Fold change /veh PLEKHG5 (11737974_s_at) / RFU LRRC4B (11730491_at) / Fold change /veh LRRC4B (11730491_at) / RFU GIMAP4 (11747438_a_at) / Fold change /veh GIMAP4 (11747438_a_at) / RFU KRT8 (11758183_x_at) / Fold change /veh KRT8 (11758183_x_at) / RFU CNN1 (11734310_a_at) / Fold change /veh CNN1 (11734310_a_at) / RFU VPS37D (11726825_at) / Fold change /veh VPS37D (11726825_at) / RFU C10orf10 (11716522_x_at) / Fold change /veh C10orf10 (11716522_x_at) / RFU KIR2DL2 /// KIR2DL4 /// KIR2DL5A /// KIR2DL5B /// KIR2DS1 /// KIR2DS2 /// KIR2DS3 /// KIR2DS4 /// KIR3DL3 /// KIR3DL3 /// KIR3DS1 (11738374_at) / Fold change /veh KIR2DL2 /// KIR2DL4 /// KIR2DL5A /// KIR2DL5B /// KIR2DS1 /// KIR2DS2 /// KIR2DS3 /// KIR2DS4 /// KIR3DL3 /// KIR3DL3 /// KIR3DS1 (11738374_at) / RFU C1QL1 (11718748_at) / Fold change /veh C1QL1 (11718748_at) / RFU TMPRSS4 (11747572_a_at) / Fold change /veh TMPRSS4 (11747572_a_at) / RFU HAMP (11756126_x_at) / Fold change /veh HAMP (11756126_x_at) / RFU RNFT2 (11725882_a_at) / Fold change /veh RNFT2 (11725882_a_at) / RFU NR4A2 (11747474_a_at) / Fold change /veh NR4A2 (11747474_a_at) / RFU ABCC12 (11746883_a_at) / Fold change /veh ABCC12 (11746883_a_at) / RFU TMEM136 (11760407_x_at) / Fold change /veh TMEM136 (11760407_x_at) / RFU CLDN22 /// WWC2 (11732394_at) / Fold change /veh CLDN22 /// WWC2 (11732394_at) / RFU HLA-DPB1 (11760878_x_at) / Fold change /veh HLA-DPB1 (11760878_x_at) / RFU SPINT1 (11716480_a_at) / Fold change /veh SPINT1 (11716480_a_at) / RFU GAP43 (11754022_s_at) / Fold change /veh GAP43 (11754022_s_at) / RFU A4GNT (11735810_at) / Fold change /veh A4GNT (11735810_at) / RFU PRB3 (11715151_x_at) / Fold change /veh PRB3 (11715151_x_at) / RFU TUBB4B (11761932_at) / Fold change /veh TUBB4B (11761932_at) / RFU CAPN14 (11732068_a_at) / Fold change /veh CAPN14 (11732068_a_at) / RFU TMCC2 (11721928_a_at) / Fold change /veh TMCC2 (11721928_a_at) / RFU IRGQ (11745062_a_at) / Fold change /veh IRGQ (11745062_a_at) / RFU FAM174B (11720279_a_at) / Fold change /veh FAM174B (11720279_a_at) / RFU TMPRSS4 (11748680_a_at) / Fold change /veh TMPRSS4 (11748680_a_at) / RFU FAM212B (11763350_a_at) / Fold change /veh FAM212B (11763350_a_at) / RFU PLEKHG5 (11743358_a_at) / Fold change /veh PLEKHG5 (11743358_a_at) / RFU ZSCAN30 (11745921_a_at) / Fold change /veh ZSCAN30 (11745921_a_at) / RFU CMKLR1 (11741424_a_at) / Fold change /veh CMKLR1 (11741424_a_at) / RFU LOC101060620 /// MAPK8IP1 (11723275_at) / Fold change /veh LOC101060620 /// MAPK8IP1 (11723275_at) / RFU SPTSSB (11747773_x_at) / Fold change /veh SPTSSB (11747773_x_at) / RFU PRSS12 (11739890_at) / Fold change /veh PRSS12 (11739890_at) / RFU BIN1 (11741810_x_at) / Fold change /veh BIN1 (11741810_x_at) / RFU WNT11 (11732464_a_at) / Fold change /veh WNT11 (11732464_a_at) / RFU C10orf10 (11716521_a_at) / Fold change /veh C10orf10 (11716521_a_at) / RFU C5orf56 (11738089_at) / Fold change /veh C5orf56 (11738089_at) / RFU CYB561 (11721691_x_at) / Fold change /veh CYB561 (11721691_x_at) / RFU ANKRD19P (11752326_a_at) / Fold change /veh ANKRD19P (11752326_a_at) / RFU OR2T12 /// OR2T33 /// OR2T8 (11738714_s_at) / Fold change /veh OR2T12 /// OR2T33 /// OR2T8 (11738714_s_at) / RFU VCAN (11748164_a_at) / Fold change /veh VCAN (11748164_a_at) / RFU JSRP1 (11732532_at) / Fold change /veh JSRP1 (11732532_at) / RFU KRTAP10-11 (11738290_x_at) / Fold change /veh KRTAP10-11 (11738290_x_at) / RFU MYO3A (11730013_a_at) / Fold change /veh MYO3A (11730013_a_at) / RFU EBF3 (11725865_a_at) / Fold change /veh EBF3 (11725865_a_at) / RFU CAMK2N1 (11719241_x_at) / Fold change /veh CAMK2N1 (11719241_x_at) / RFU C5orf56 (11738088_a_at) / Fold change /veh C5orf56 (11738088_a_at) / RFU OLFML3 (11715873_a_at) / Fold change /veh OLFML3 (11715873_a_at) / RFU LOC100653217 /// NTM (11731650_a_at) / Fold change /veh LOC100653217 /// NTM (11731650_a_at) / RFU MAPK11 (11762145_a_at) / Fold change /veh MAPK11 (11762145_a_at) / RFU FIZ1 (11724087_x_at) / Fold change /veh FIZ1 (11724087_x_at) / RFU OASL (11726364_x_at) / Fold change /veh OASL (11726364_x_at) / RFU SOX15 (11748057_x_at) / Fold change /veh SOX15 (11748057_x_at) / RFU CD79A (11719716_a_at) / Fold change /veh CD79A (11719716_a_at) / RFU HIST1H1D (11736915_at) / Fold change /veh HIST1H1D (11736915_at) / RFU CASKIN2 (11723855_a_at) / Fold change /veh CASKIN2 (11723855_a_at) / RFU LOC730098 (11760151_x_at) / Fold change /veh LOC730098 (11760151_x_at) / RFU OR4N2 (11742367_at) / Fold change /veh OR4N2 (11742367_at) / RFU PRRT2 (11749266_a_at) / Fold change /veh PRRT2 (11749266_a_at) / RFU SNX32 (11753110_a_at) / Fold change /veh SNX32 (11753110_a_at) / RFU CDHR5 (11726645_a_at) / Fold change /veh CDHR5 (11726645_a_at) / RFU RCAN1 (11760418_a_at) / Fold change /veh RCAN1 (11760418_a_at) / RFU FAM167A (11723789_a_at) / Fold change /veh FAM167A (11723789_a_at) / RFU FAM26E (11764081_at) / Fold change /veh FAM26E (11764081_at) / RFU ISYNA1 (11749810_s_at) / Fold change /veh ISYNA1 (11749810_s_at) / RFU ACY1 (11761880_at) / Fold change /veh ACY1 (11761880_at) / RFU 11764098_at / Fold change /veh 11764098_at / RFU SAMD14 (11745864_x_at) / Fold change /veh SAMD14 (11745864_x_at) / RFU NPB (11741838_a_at) / Fold change /veh NPB (11741838_a_at) / RFU TMPRSS6 (11731388_a_at) / Fold change /veh TMPRSS6 (11731388_a_at) / RFU KRTAP10-2 (11738614_at) / Fold change /veh KRTAP10-2 (11738614_at) / RFU ARHGAP8 /// PRR5-ARHGAP8 (11727945_x_at) / Fold change /veh ARHGAP8 /// PRR5-ARHGAP8 (11727945_x_at) / RFU KRTAP5-7 /// NADSYN1 (11734609_at) / Fold change /veh KRTAP5-7 /// NADSYN1 (11734609_at) / RFU RASL12 (11751679_a_at) / Fold change /veh RASL12 (11751679_a_at) / RFU CDKN2B (11736163_a_at) / Fold change /veh CDKN2B (11736163_a_at) / RFU PRF1 (11729649_at) / Fold change /veh PRF1 (11729649_at) / RFU, ZNF638 /// ZNF638-IT1 / Fold change vs veh, ZNF638 /// ZNF638-IT1 / RFU, PANK3 / Fold change vs veh, PANK3 / RFU, SH3YL1 / Fold change vs veh, SH3YL1 / RFU, ZEB2 / Fold change vs veh, ZEB2 / RFU, NRIP1 / Fold change vs veh, NRIP1 / RFU, PTTG1IP / Fold change vs veh, PTTG1IP / RFU, CAPN2 / Fold change vs veh, CAPN2 / RFU, MED14 / Fold change vs veh, MED14 / RFU, SNORA58 / Fold change vs veh, SNORA58 / RFU, C1orf63 / Fold change vs veh, C1orf63 / RFU, LRRFIP1 / Fold change vs veh, LRRFIP1 / RFU, NDUFAF7 / Fold change vs veh, NDUFAF7 / RFU, SLC12A2 / Fold change vs veh, SLC12A2 / RFU, IBTK / Fold change vs veh, IBTK / RFU, ESF1 / Fold change vs veh, ESF1 / Fold change vs veh, TMEM50B / RFU, TAOK1 / Fold change vs veh, TAOK1 / RFU, ACBD3 / Fold change vs veh, ACBD3 / RFU, TMA16 / Fold change vs veh, TMA16 / RFU, RWDD3 / Fold change vs veh, RWDD3 / RFU, BCAT1 / Fold change vs veh, BCAT1 / RFU, EDEM3 / Fold change vs veh, EDEM3 / RFU, TMEM33 / Fold change vs veh, TMEM33 / RFU, WDR75 / Fold change vs veh, WDR75 / RFU, AHCTF1 / Fold change vs veh, AHCTF1 / RFU, TFRC / Fold change vs veh, TFRC / RFU, ZDHHC17 / Fold change vs veh, ZDHHC17 / RFU, NOM1 / Fold change vs veh, NOM1 / RFU, ARL8B / Fold change vs veh, ARL8B / RFU, ZBTB11 / Fold change vs veh, ZBTB11 / RFU, TAMM41 / Fold change vs veh, TAMM41 / RFU, KIAA1704 /// LOC100996395 / Fold change vs veh, KIAA1704 /// LOC100996395 / RFU, ING1 / Fold change vs veh, ING1 / RFU, TRMT61B / Fold change vs veh, TRMT61B / RFU, FUBP3 / Fold change vs veh, FUBP3 / RFU, TP53 / Fold change vs veh, TP53 / RFU, TNKS2 / Fold change vs veh, TNKS2 / RFU, ZFP14 / Fold change vs veh, ZFP14 / RFU, ACTR2 / Fold change vs veh, ACTR2 / RFU, PPP3R1 / Fold change vs veh, PPP3R1 / RFU, PIK3R1 / Fold change vs veh, PIK3R1 / RFU, HNRNPA1 / Fold change vs veh, HNRNPA1 / RFU, RNF170 / Fold change vs veh, RNF170 / RFU, ZNF28 / Fold change vs veh, ZNF28 / RFU, RNGTT / Fold change vs veh, RNGTT / RFU, OGT / Fold change vs veh, OGT / RFU, BRD1 / Fold change vs veh, BRD1 / RFU, MARS / Fold change vs veh, MARS / RFU, ZNF655 / Fold change vs veh, ZNF655 / RFU, FAHD1 / Fold change vs veh, FAHD1 / RFU, BDP1 / Fold change vs veh, BDP1 / RFU, LRRCC1 / Fold change vs veh, LRRCC1 / RFU, ARID1A / Fold change vs veh, ARID1A / RFU, ZNF146 / Fold change vs veh, ZNF146 / RFU, ZNF330 / Fold change vs veh, ZNF330 / RFU, GPN3 / Fold change vs veh, GPN3 / RFU, C9orf123 / Fold change vs veh, C9orf123 / RFU, N4BP2L2 / Fold change vs veh, N4BP2L2 / RFU, ARFIP1 / Fold change vs veh, ARFIP1 / RFU, FAM179B / Fold change vs veh, FAM179B / RFU, BCL10 / Fold change vs veh, BCL10 / RFU, UHRF1BP1L / Fold change vs veh, UHRF1BP1L / RFU, BET1 / Fold change vs veh, BET1 / RFU, CNOT2 / Fold change vs veh, CNOT2 / RFU, ZNF268 / Fold change vs veh, ZNF268 / Fold change vs veh, ZNF507 / RFU, DGCR2 / Fold change vs veh, DGCR2 / RFU, WDSUB1 / Fold change vs veh, WDSUB1 / Fold change vs veh, HSP90B1 /// MIR3652 / RFU, ADSS / Fold change vs veh, ADSS / RFU, GK / Fold change vs veh, GK / RFU, ZNF148 / Fold change vs veh, ZNF148 / RFU, TAF9 / Fold change vs veh, TAF9 / RFU, SLC1A5 / Fold change vs veh, SLC1A5 / RFU, SLMO2 / Fold change vs veh, SLMO2 / RFU, ABCC4 / Fold change vs veh, ABCC4 / RFU, LOC101060439 /// RAP1B / Fold change vs veh, LOC101060439 /// RAP1B / RFU, RFX7 / Fold change vs veh, RFX7 / RFU, GTPBP10 / Fold change vs veh, GTPBP10 / RFU, CNEP1R1 / Fold change vs veh, CNEP1R1 / RFU, BIVM-ERCC5 /// ERCC5 / Fold change vs veh, BIVM-ERCC5 /// ERCC5 / RFU, ILF3 / Fold change vs veh, ILF3 / RFU 11762660_at / Fold change /veh 11762660_at / RFU VCAN (11757783_s_at) / Fold change /veh VCAN (11757783_s_at) / RFU DDX43 (11728927_at) / Fold change /veh DDX43 (11728927_at) / RFU KRT8 (11758188_x_at) / Fold change /veh KRT8 (11758188_x_at) / RFU NKD1 (11759106_at) / Fold change /veh NKD1 (11759106_at) / RFU SRD5A1 (11742802_a_at) / Fold change /veh SRD5A1 (11742802_a_at) / RFU TPSAB1 /// TPSB2 (11721975_s_at) / Fold change /veh TPSAB1 /// TPSB2 (11721975_s_at) / RFU GSTM3 (11746129_a_at) / Fold change /veh GSTM3 (11746129_a_at) / RFU IL23R (11737362_x_at) / Fold change /veh IL23R (11737362_x_at) / RFU TMEM51 (11727254_a_at) / Fold change /veh TMEM51 (11727254_a_at) / RFU PIWIL2 (11732686_x_at) / Fold change /veh PIWIL2 (11732686_x_at) / RFU ORM1 (11744905_x_at) / Fold change /veh ORM1 (11744905_x_at) / RFU CCDC152 (11743942_at) / Fold change /veh CCDC152 (11743942_at) / RFU ECM1 (11717891_a_at) / Fold change /veh ECM1 (11717891_a_at) / RFU IL23R (11748794_a_at) / Fold change /veh IL23R (11748794_a_at) / RFU TNFAIP8L3 (11732012_x_at) / Fold change /veh TNFAIP8L3 (11732012_x_at) / RFU MBOAT4 (11741988_at) / Fold change /veh MBOAT4 (11741988_at) / RFU 11764193_at / Fold change /veh 11764193_at / RFU TMEM53 (11763286_at) / Fold change /veh TMEM53 (11763286_at) / RFU MAGEB2 (11727129_at) / Fold change /veh MAGEB2 (11727129_at) / RFU TMEM200A (11744735_a_at) / Fold change /veh TMEM200A (11744735_a_at) / RFU CCDC152 (11751479_a_at) / Fold change /veh CCDC152 (11751479_a_at) / RFU FAM211A (11726209_a_at) / Fold change /veh FAM211A (11726209_a_at) / RFU RGS16 (11746705_a_at) / Fold change /veh RGS16 (11746705_a_at) / RFU VCAN (11755009_s_at) / Fold change /veh VCAN (11755009_s_at) / RFU RHOB (11743442_s_at) / Fold change /veh RHOB (11743442_s_at) / RFU RGS16 (11720943_a_at) / Fold change /veh RGS16 (11720943_a_at) / RFU RGS16 (11720944_at) / Fold change /veh RGS16 (11720944_at) / RFU, VPS4B / Fold change vs veh, VPS4B / RFU, CREB1 / Fold change vs veh, CREB1 / RFU, DNAJC13 / Fold change vs veh, DNAJC13 / RFU, GNAQ / Fold change vs veh, GNAQ / RFU, CDK5R1 / Fold change vs veh, CDK5R1 / RFU, ZRANB3 / Fold change vs veh, ZRANB3 / RFU, CUL4A / Fold change vs veh, CUL4A / RFU, CCNY / Fold change vs veh, CCNY / RFU, UFL1 / Fold change vs veh, UFL1 / RFU, COG3 / Fold change vs veh, COG3 / RFU, DIAPH2 / Fold change vs veh, DIAPH2 / RFU, SKA2 / Fold change vs veh, SKA2 / RFU, AFF3 / Fold change vs veh, AFF3 / RFU, LMF1 / Fold change vs veh, LMF1 / RFU, IPO11 / Fold change vs veh, IPO11 / RFU, DFFB / Fold change vs veh, DFFB / RFU, FOXP1 / Fold change vs veh, FOXP1 / RFU, CARD8 / Fold change vs veh, CARD8 / RFU, STRN3 / Fold change vs veh, STRN3 / RFU, ADK / Fold change vs veh, ADK / RFU, RASSF2 / Fold change vs veh, RASSF2 / RFU, WIPF1 / Fold change vs veh, WIPF1 / RFU, LARP1B / Fold change vs veh, LARP1B / RFU, RASA1 / Fold change vs veh, RASA1 / RFU, RB1 / Fold change vs veh, RB1 / RFU, PPFIA1 / Fold change vs veh, PPFIA1 / RFU, MAT2A / Fold change vs veh, MAT2A / RFU, CCT5 / Fold change vs veh, CCT5 / RFU, WDR92 / Fold change vs veh, WDR92 / RFU, CUX1 / Fold change vs veh, CUX1 / RFU, TTC7A / Fold change vs veh, TTC7A / RFU, TMEM135 / Fold change vs veh, TMEM135 / RFU, DEPTOR / Fold change vs veh, DEPTOR / RFU, CPM / Fold change vs veh, CPM / RFU, DNAJB6 / Fold change vs veh, DNAJB6 / RFU, CACNA2D3 / Fold change vs veh, CACNA2D3 / RFU, DTX4 / Fold change vs veh, DTX4 / RFU, TFCP2 / Fold change vs veh, TFCP2 / RFU, GMCL1 /// GMCL1P1 / Fold change vs veh, GMCL1 /// GMCL1P1 / RFU, AEBP2 / Fold change vs veh, AEBP2 / RFU, SNHG1 /// SNORD22 /// SNORD25 /// SNORD26 /// SNORD27 /// SNORD28 /// SNORD29 /// SNORD31 / Fold change vs veh, SNHG1 /// SNORD22 /// SNORD25 /// SNORD26 /// SNORD27 /// SNORD28 /// SNORD29 /// SNORD31 / Fold change (Aza/veh), C12orf56 (ProbeSet 11735607_a_at) / Fold change (ACY-1035/veh), C12orf56 (ProbeSet 11735607_a_at) / Fold change (Aza/veh), FGFR1OP (ProbeSet 11751329_s_at) / Fold change (ACY-1035/veh), FGFR1OP (ProbeSet 11751329_s_at) / Fold change (Aza/veh), VPS36 (ProbeSet 11739960_a_at) / Fold change (ACY-1035/veh), VPS36 (ProbeSet 11739960_a_at) / RFU SYPL1 (11715823_x_at) / Fold change /veh SYPL1 (11715823_x_at) / RFU IGFBP7 (11715501_s_at) / Fold change /veh IGFBP7 (11715501_s_at) / RFU REEP3 (11722064_at) / Fold change /veh REEP3 (11722064_at) / RFU IGLL1 (11728026_x_at) / Fold change /veh IGLL1 (11728026_x_at): dose or concentration left out as unconfirmed. To be noted: ProbeSet 11739106_a_at; LIST B.

Regarding `Nc1ncn([C@@H]2O[C@H](CO)[C@@H](O)[C@H]2O)c(=O)n1` [azacitidine], the “RFU, TMEM33” value came to 268.42 RFU.
